Measured values taken from patent US7872036B2, “3-triazolylphenyl sulfide derivative and insecticide, miticide and nematicide containing it as an active ingredient” (Kumiai Chemical Industry Co., Ltd., priority 2004, dated 2011).

Assays:
two-spotted spider mites [1] = assay: Miticidal test on two-spotted spider mites (by soil drenching); type: in vivo, Tetranychus urticae; set-up: scale not given here; conditions: active ingredient 100 ppm, 5 ml per 100 g soil, 25° C., 13 days
Experimental: (§1) Wettable powders were prepared in accordance with Formulation Example 2 and diluted with water to an active ingredient concentration of 100 ppm. 100 g of the soil in cups with soybean seedlings which had been inoculated with imago two-spotted spider mites were drenched with 5 ml of the resulting solutions. The treated seedlings were placed in a thermoplastic chamber at 25° C. for 13 days, and the mite survivors were counted for calculation of the miticidal value by using Equation 2.

brown planthoppers = assay: Insecticidal test on brown planthoppers; type: in vivo, Nilaparvata lugens; conditions: active ingredient 500 ppm, germinating rice immersed, 4th-instar larvae, 25° C., 6 days
two-spotted spider mites [2] = assay: Miticidal test on two-spotted spider mites (by dipping); type: in vivo, Tetranychus urticae; set-up: scale not given here; conditions: dipping of soybean seedlings, active ingredient 500 ppm, 25° C., 13 days
Experimental: as §1, with “500” for “100”, “Soybean” for “100 g of the soil in cups with soybean”, “dipped in” for “drenched with 5 ml of”, “solutions and dried in air.” for “solutions.”, “thermostatic” for “thermoplastic”, “2. The test was carried out by one series system.” for “2.”

[3] = test system: southern root-knot nematodes; assay: Nemastatic test on southern root-knot nematodes; type: in vivo, Meloidogyne sp.; conditions: diluted solution 20 ppm mixed 1:1 with suspension of second stage larvae, 25° C., 5 days

Cc1cc(F)c(-n2nc(C(F)(F)F)nc2NC(=O)C(F)(F)F)cc1[S+]([O-])CC(F)(F)F (stereo not shown) [Compound 6, [5-(5-trifluoroacetylamino-3-trifluoromethyl-1,2,4-triazolyl)-4-fluoro-2-methylphenyl]2,2,2-trifluoroethyl sulfoxide]
Miticidal value (two-spotted spider mites [1]): 100 | Insecticidal degree (%) (brown planthoppers): 100% | Miticidal value (two-spotted spider mites [2]): 100 | Nemastatic degree (%) [3]: 100%
